These results are taken from patent publication US20230009608A1, “GRK2 INHIBITORS AND USES THEREOF” (Cygnal Therapeutics, Inc., priority 2020, published 2023).

For assay [1], the system named is PAXF1657 control empty vector cell line. Briefly: 7-day proliferation assay, PAXF1657 control empty vector cell line (Example 9). The format is cell-based. The note with it: 168 h; 7-day compound treatment, CellTiter-Glo. The gist of the method:
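Cells plated at 500 per well and attached overnight. Next, 10-point inhibitor series added (30 μM-0.0002 μM, 0.3% DMSO) and a day-0 viability plate read. Then, after 3 days, medium with fresh compound. Finally, viability after 4 more days via CellTiter-Glo.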

The subject of assay [2] is PAXF1657 cell line stably overexpressing GRK2. Briefly: 7-day proliferation assay, PAXF1657 stably overexpressing GRK2 (Example 9). Format: cell-based. The note with it: for GI50: 168 h, 7-day compound treatment, CellTiter-Glo; for Ratio GRK2 overexpressing cells/Empty vector cells: GI50 in GRK2 overexpressing PAXF1657 over GI50 in empty vector PAXF1657. On the procedure: In order to identify compounds specific for GRK2, we generated two isogenic cell line pairs of the pancreatic cancer cell line PAXF1657, a pair of cells stably overexpressing GRK2 cDNA or the control empty vector and a cell line pair of PAXF1657 GRK2 knockout clonal cells versus non-targeting control clonal cells.
Proliferation Assay: Cellular anti-proliferative activity of compounds was assessed by using the pancreatic cancer cell line, PAXF1657, stably overexpressing GRK2 cDNA or the control empty vector, as well as the parental urinary bladder cancer cell line, 5637. In addition, we also took advantage of GRK2 knockout cell lines that were generated via CRISPR. Cell lines were seeded into tissue culture treated, white-walled, 96-well plates at a density of 500 cells/well in RPMI1640 media supplemented with 10% H.I. FBS and penicillin/streptomycin. Plates were incubated overnight at 37° C., 5% CO2 to allow cells to adhere to the wells. GRK2 inhibitors were added to the cells using a 10-point dilution series with a final concentration ranging from 30 μM-0.0002 μM in 0.3% DMSO. At the time of compound addition, a set of plates, that were not treated with compounds, were collected and cell viability was measured using CellTiter-Glo (Promega). CellTiter-Glo reagent was added to the designed plates and luminescence was measuring using a Biotek Synergy plate reader. The compound treated cells were incubated for 3 days at 37° C., 5% CO2. The media was then aspirated from each well and replaced with fresh media containing GRK2 inhibitors. The compound treated cells were then incubated for an additional 4 days at 37° C., 5% CO2. Cell viability was assessed and at end of the 7-day compound treatment by CellTiterGlo.

Assay [3] has as its target T1, GRK2 (Homo sapiens, UniProt P25098).
T1 construct: purchased SignalChem A14-10G
T1 sequence (P25098 1-689): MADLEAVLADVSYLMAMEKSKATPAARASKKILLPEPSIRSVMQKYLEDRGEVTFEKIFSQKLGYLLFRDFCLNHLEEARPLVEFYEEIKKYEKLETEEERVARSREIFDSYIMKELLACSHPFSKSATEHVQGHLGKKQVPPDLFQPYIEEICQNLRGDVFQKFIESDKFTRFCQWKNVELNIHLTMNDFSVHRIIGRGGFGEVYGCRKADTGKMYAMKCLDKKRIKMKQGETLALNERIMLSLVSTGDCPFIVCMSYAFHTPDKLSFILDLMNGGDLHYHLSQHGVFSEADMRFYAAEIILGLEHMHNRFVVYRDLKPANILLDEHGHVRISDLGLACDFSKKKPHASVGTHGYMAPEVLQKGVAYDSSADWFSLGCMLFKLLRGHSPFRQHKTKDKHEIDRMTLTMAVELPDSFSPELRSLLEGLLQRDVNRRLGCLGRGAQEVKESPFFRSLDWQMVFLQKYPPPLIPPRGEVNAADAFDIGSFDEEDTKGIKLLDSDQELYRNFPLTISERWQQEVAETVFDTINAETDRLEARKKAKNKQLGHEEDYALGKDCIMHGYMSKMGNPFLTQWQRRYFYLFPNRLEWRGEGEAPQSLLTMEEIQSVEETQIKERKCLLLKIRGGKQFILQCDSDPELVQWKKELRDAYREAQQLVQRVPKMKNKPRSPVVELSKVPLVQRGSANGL
As to the kind of experiment: ADPGlo GRK2 Inhibition Assay (Example 8). The note with it: 7.5 nM GRK2, 10 μM ATP, ADP-Glo; read-out: GRK2 IC50 (nM) (Example 8). The format is biochemical. The method in brief: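 GRK2 (15 nM 2× enzyme solution) was preincubated 15 min with compound, then reacted 180 min at room temperature with 2× mix of 20 μM ATP plus GRKtide in HEPES pH 7.5, MgCl2, Tween-20, DTT. ADP was detected by ADP-Glo luminescence. Percent inhibition was normalised to enzyme and no-enzyme controls, with dose-response curves from threefold dilutions starting at 100 μM.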
For orientation: In ADP-Glo the light output rises with the ADP produced.

Assay [4] has as its target T1, GRK2. Briefly: GRK2 Inhibition Assay (TR-FRET, Example 7). Format: biochemical. The note with it: 1 nM GRK2, 7 μM ATP, TR-FRET; read-out: GRK2 IC50 (nM) (Example 7). The method in brief: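 GRK2 at 1 nM preincubated 30 min with compound, then reacted 90 min at room temperature with 7 μM ATP and 50 nM ULight-TopoIIα in HEPES/MgCl2/DTT buffer. Phosphorylation detected by TR-FRET after Eu anti-TopoIIα and EDTA addition, 60 min.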
(In TR-FRET formats the signal depends on donor and acceptor labels being close together.)

What is called GI50 is the concentration that inhibits growth by half. Broadly, the IC50 is the concentration that inhibits the measured activity by half. In the case of `Cn1c(CNc2cccc(C(=O)NCc3cccc4c3OCC4)c2)nnc1-c1ccncn1` [compound 1, N-((2,3-dihydrobenzofuran-7-yl)methyl)-3-(((4-methyl-5-(pyrimidin-4-yl)-4H-1,2,4-triazol-3-yl)methyl)amino)benzamide], the concentration for 50% growth inhibition (GI50) amounted to 1.97 µM in assay [1] and 24.3 µM in assay [2]. Further, the “Ratio GRK2 overexpressing cells/Empty vector cells” value in assay [2] was determined as 12.34. Also, the results for the IC50 on GRK2 [3] and at GRK2 [4] were 27 nM and 4.7 nM, respectively.

Turning to `Cn1c(CNc2cccc(C(=O)NCc3cccc(F)c3)c2)nnc1-c1ccncn1` [compound 2], the GI50 in assay [1] came out at 1.79 µM; in assay [2] it was 20.5 µM. For the same compound, the “Ratio GRK2 overexpressing cells/Empty vector cells” value in assay [2] is recorded as 11.46. Besides, the IC50 was determined as 49 nM on GRK2 [3] and 56 nM at GRK2 [4].

As to `Cn1c(CNc2cccc(C(=O)N[C@H]3CCOc4ccccc43)c2)nnc1-c1ccncn1` [compound 3], the figures for the GI50 in assay [1] and in assay [2] were 1.16 µM and 8.61 µM, respectively. The “Ratio GRK2 overexpressing cells/Empty vector cells” value in assay [2] was 7.42. For the same compound, the IC50 came to 18 nM at GRK2 [3] and 10 nM on GRK2 [4].

For `Cn1c(CNc2cccc(C(=O)NCc3cccnc3C(F)(F)F)c2)nnc1-c1ccncn1` [compound 4], the figures for the GI50 in assay [1] and in assay [2] were 0.79 µM and 4.59 µM, respectively. Further, the “Ratio GRK2 overexpressing cells/Empty vector cells” value in assay [2] worked out at 5.79. The IC50 was 36 nM at GRK2 [3] and 28 nM on GRK2 [4].

For the compound `COc1ccc(CNC(=O)c2cccc(NCc3nnc(-c4ccncn4)n3C)c2)c(F)c1` [compound 5], the GI50 in assay [1] amounted to 1.51 µM; in assay [2] it was 10.3 µM. In assay [2], the “Ratio GRK2 overexpressing cells/Empty vector cells” value came out at 6.79. In addition, the IC50 on GRK2 [3] was 19 nM; at GRK2 [4], 5.4 nM.

On to `COc1cccc(OC)c1CNC(=O)c1cccc(NCc2nnc(-c3ccncn3)n2C)c1` [compound 6], for which the GI50 in assay [1] amounted to 2.08 µM; in assay [2], 12.5 µM. Moreover, in assay [2], the “Ratio GRK2 overexpressing cells/Empty vector cells” value was 6.01. Also, the half-maximal inhibitory concentration (IC50) at GRK2 [3] turned out to be 44 nM; at GRK2 [4], 19 nM.

For `CCOc1ccccc1CNC(=O)c1cccc(NCc2nnc(-c3ccncn3)n2C)c1` [compound 7], the figures for the GI50 in assay [1] and in assay [2] were 3.32 µM and 14.2 µM, respectively. Also, the “Ratio GRK2 overexpressing cells/Empty vector cells” value in assay [2] came to 4.29. Besides, the IC50 on GRK2 [3] was found to be 30 nM; on GRK2 [4], 33 nM.

Take `Cn1c(CNc2cccc(C(=O)NC3(c4ccccc4)CCOCC3)c2)nnc1-c1ccncn1` [compound 8]: the GI50 was above 30 µM in assay [1] and 22.7 µM in assay [2]. Besides, the IC50 was determined as 140 nM on GRK2 [3] and 170 nM at GRK2 [4].

`CCCn1c(CNc2cc(C(=O)NCc3ccccc3C(F)(F)F)ccn2)nnc1-c1ccncn1` [compound 35, 2-(((4-propyl-5-(pyrimidin-4-yl)-4H-1,2,4-triazol-3-yl)methyl)amino)-N-(2-(trifluoromethyl)benzyl)isonicotinamide]: the GI50 in assay [1] amounted to 1.3 µM. Besides, in assay [2], the 50% growth inhibitory concentration (GI50) turned out to be 3.22 µM and the “Ratio GRK2 overexpressing cells/Empty vector cells” value is on record as 2.49. Further, the IC50 on GRK2 [4] stood at 4.5 nM.
